Experimental data as given in patent US6043248A, “Alpha-substituted pyrimidine-thioalkyl and alkylether compounds as inhibitors of viral reverse transcriptase” (priority 1997, dated 2000).
Like-named read-outs stand apart in the source and are kept apart here.

Molecular target: T1, P236L viral reverse transcriptase (Human immunodeficiency virus type 1 group M subtype B, UniProt P04585, P823L)
T1 construct: P236L viral reverse transcriptase is obtained by PNAS 90: 4713-4717 (1993); made in house
Test: inhibition of viral reverse transcriptase (P236L), cell free assay
Format: biochemical
Conditions: 30 minutes at 37° C.
Source text: The utility of the pyrimidine-thioalkyl and alkylether anti-AIDS compounds of Formula IA of this invention can be determined by their ability to inhibit viral reverse transcriptase, an enzyme essential for human immunodeficiency virus replication. This enzyme has characteristics which differentiate it from other known cellular polymerases and it is a unique enzyme which is not found in uninfected cells. Viral reverse transcriptase (Wild Type) is found in extracts from bacterial clones prepared according to the procedure described in AIDS Virus Reverse Transcriptase defined by high level expression in Escherichia coli, EMBO J. 6:3133-3137 (1987). P236L viral reverse transcriptase is obtained by PNAS 90: 4713-4717 (1993). Inhibition of this enzyme is determined in a cell free assay which measures the level of radioactive precursors incorporated into DNA. Extracts prepared according to the procedure of Science, 1125-1129 (1981) are incubated in a mixture of inhibitor, 20 mM dithiothreitol, 60 mM sodium chloride, 0.05% NP-40, 10 mM magnesium chloride, 50 mM Tris pH 8.3, 10 μM [^35 S]-labeled deoxynuleoside-5'-triphosphate, 10 μg/ml RNA template (poly rC or poly rG) and 5 μg/ml DNA primer (oligo dG or oligo dT) for 30 minutes at 37° C. Incorporation of radio-labeled percursor is determined by spotting aliquots of the reaction mixture on DE81 paper, washing the papers to remove unincorporated percursor, drying and determining counts. The results (IC50 means the concentration, in μM of drug, required to inhibit the reverse transcriptase activity (P236L and Wild Type) to the extent of 50%) of various assay(s) are combined and reported as % inhibition and/or IC50 (calculated) in Table I (P236L) and Table II (Wild Type).

[1] = read-out: IC50 (Table I, P236L)

Row | Compound | IC50 [1] | IC50 (IC50 (Table I, P236L))
1 | Nc1nc(SCc2cc(Cl)ccn2)nc(Cl)c1F [Example 149, 4-amino-6-chloro-5-fluoro-2-[2-(4-chloro)pyridylmethylthio]pyrimidine] | 50 nM | –
2 | Nc1cc(Cl)nc(SCc2cc(Br)ccn2)n1 [Example 119, 4-amino-6-chloro-2-[2-(4-bromo)pyridylmethylthio]-pyrimidine] | 40 nM | –
3 | CNc1cc(C#N)nc(SCc2ccc3ccccc3c2)n1 [Example 288, 6-methylamino-2-(2-naphthylmethyl)thio-4-pyrimidine carbonitrile] | – | 50000 nM
4 | Nc1cc(Cl)nc([S+]([O-])Cc2cccc(Br)c2)n1 (stereo not drawn) [Example 67, 4-amino-6-chloro-2-(3-bromophenylmethylsulfinyl)pyrimidine] | 25000 nM | –
5 | Nc1nc(SCc2ccccc2)nc(Cl)c1C1CCCCC1 [Example 53, 4-amino-6-chloro-5-cyclohexyl-2-(benzylthio)-pyrimidine] | 15000 nM | –
6 | CC(C)Oc1cccc(CSc2nc(N)cc(Cl)n2)c1 [Example 109, 4-amino-6-chloro-2-(3-isopropoxyphenylmethylthio)-pyrimidine] | 2000 nM | –
7 | Nc1cc(Cl)nc(SCc2ccc3ncccc3c2)n1 [Example 178, 4-Amino-6-chloro-2-[(quinolin-6-ylmethyl)thio]pyrimidine] | 500 nM | –
8 | Nc1cc(Cl)nc(SCc2ccc3c(c2)CCO3)n1 [Example 168, 4-Amino-6-chloro-2-[(2,3-dihydrobenzofuran-5-ylmethyl)thio]pyrimidine] | 50 nM | –
9 | Nc1cc(Cl)nc(SCc2ccc(F)c(F)c2)n1 [Example 48, 4-amino-6-chloro-2-(3,4-difluorophenylmethylthio)-pyrimidine] | 500 nM | –
10 | Nc1cc(Cl)nc(SCc2cc(Br)cc(Br)c2)n1 [Example 52, 4-amino-6-chloro-2-(3,5-dibromophenylmethylthio)-pyrimidine] | 200 nM | –
11 | Nc1cc(Cl)nc(SCc2cc(N3CCCC3)ccn2)n1 [Example 143, 4-amino-6-chloro-2-[2-(4-pyrrolidino)pyridylmethylthio]-pyrimidine] | 50 nM | –
12 | Nc1cc(Cl)nc(SCc2cccc(I)c2)n1 [Example 44, 4-amino-6-chloro-2-(3-iodophenylmethylthio)-pyrimidine] | 600 nM | –
13 | Nc1cc(Cl)nc(SCc2ccc(-c3ccccc3)cn2)n1 [Example 133, 4-amino-6-chloro-2-[2-(5-phenyl)pyridylmethylthio]-pyrimidine] | – | 1000 nM
14 | Nc1cc(Cl)nc(SCc2cccnc2)n1 [Example 57, 4-amino-6-chloro-2-(3-pyridylmethylthio)-pyrimidine] | 10000 nM | –
15 | Nc1ccnc(SCc2cccc(Br)c2)n1 [Example 95, 4-amino-2-(3-bromophenylmethylthio)-pyrimidine] | 1000 nM | –
16 | Cc1cncc(CSc2nc(N)cc(Cl)n2)n1 [Example 173, 4-Amino-6-chloro-2-[(6-methylpyrazin-2-ylmethyl)thio]pyrimidine] | 10000 nM | –
17 | Nc1cc(Cl)nc(SCc2cccc3ncccc23)n1 [Example 183, 4-Amino-6-chloro-2-[(quinolin-5-ylmethyl)thio]pyrimidine] | 40 nM | –
18 | Nc1cc(Cl)nc(SCc2cccc(F)c2)n1 [Example 41, 4-amino-6-chloro-2-(3-fluorophenylmethylthio)-pyrimidine] | 200 nM | –
19 | Nc1cc(Cl)nc(SCc2cccc(C(F)(F)F)c2)n1 [Example 38, 4-amino-6-chloro-2-(3-trifluoromethylphenylmethylthio)-pyrimidine] | 1000 nM | –
20 | Nc1cc(Cl)nc(SCc2cc(Cl)ccn2)n1 [Example 111, 4-amino-6-chloro-2-[2-(4-chloro)-5 pyridylmethylthio]-pyrimidine] | 30 nM | –
21 | Nc1cc(Cl)nc([S+]([O-])Cc2ccc3ccccc3c2)n1 (stereo not drawn) [Example 68, 4-amino-6-chloro-2-(2-naphthylmethylsulfinyl)-pyrimidine] | 5000 nM | –
22 | Nc1cc(Cl)nc(SCc2c(Cl)cccc2Cl)n1 [Example 167, 4-amino-6-chloro-2-(2,6-dichlorophenyl)methylthio-pyrimidine] | 5000 nM | –
23 | Cc1cccnc1CSc1nc(N)cc(Cl)n1 [Example 117, 4-amino-6-chloro-2-[2-(3-methyl)pyridylmethylthio]-pyrimidine] | 1050 nM | –
24 | Nc1nc(SCc2cc(Cl)ccn2)nc(Cl)c1F [Example 192] | 20 nM | –

Row | Compound | IC50 [1] | IC50 (IC50 (Table I, P236L))
25 | Nc1cc(Cl)nc(SCc2cccc3ccccc23)n1 [Example 58, 4-amino-6-chloro-2-(1-naphthylmethylthio)-pyrimidine] | 30 nM | –
26 | Clc1cc(N2CCCC2)nc(SCc2ccccc2)n1 [Example 85, 4-pyrrolidino-6-chloro-2-(benzylthio)-pyrimidine] | 30000 nM | –
27 | Nc1cc(Cl)nc(SCc2cccc(Cl)n2)n1 [Example 112, 4-amino-6-chloro-2-[2-(6-chloro)pyridylmethylthio]-pyrimidine] | 70 nM | –
28 | Nc1cc(Cl)nc(SCc2cccc([N+](=O)[O-])c2)n1 [Example 45, 4-amino-6-chloro-2-(3-nitrophenylmethylthio)-pyrimidine] | 110 nM | –
29 | Nc1cc(Cl)nc(SCc2cc(C3CC3)ccn2)n1 [Example 137, 4-amino-6-chloro-2-[2-(4-cyclopropyl)pyridylmethylthio]-pyrimidine] | 10 nM | –
30 | Nc1cc(Cl)nc(SCc2cccc3cccnc23)n1 [Example 180, 4-Amino-6-chloro-2-[(quinolin-8-ylmethyl)thio]pyrimidine] | – | 50 nM
31 | Nc1cc(Cl)nc(SCC2=CCCc3ccccc32)n1 [Example 187, 4-Amino-6-chloro-2-[[(3,4-dihydro-1-naphthalenyl)methyl]thio]pyrimidine] | 600 nM | –
32 | Nc1cc(Cl)nc(SCC2=CCc3ccccc32)n1 [Example 155, 4-amino-6-chloro-2-[(1H-inden-3-ylmethyl)thio]pyrimidine] | 5000 nM | –
33 | Nc1cc(Cl)nc(SCc2ccc3cc(F)c(F)cc3c2)n1 [Example 60, 4-amino-6-chloro-2-(6,7-difluoro-2-naphthylmethylthio)-pyrimidine] | 10000 nM | –
34 | Cc1ccnc(CSc2nc(N)cc(Cl)n2)c1 [Example 114, 4-amino-6-chloro-2-[2-(4-methyl)pyridylmethylthio]-pyrimidine] | 10 nM | –
35 | COc1cc(C)nc(CSc2nc(N)cc(Cl)n2)c1 [Example 120, 4-amino-6-chloro-2-[2-(4-methoxy-6-methyl)-pyridylmethylthio]-pyrimidine] | 20 nM | –
36 | Nc1cc(Cl)nc(SCc2ccoc2)n1 [Example 148, 4-Amino-6-chloro-2-[(furan-3-ylmethyl)thio]pyrimidine] | 10000 nM | –
37 | Cc1c(N)nc(SCc2ccc3ccccc3c2)nc1Cl [Example 90, 4-amino-5-methyl-6-chloro-2-(2-naphthylmethylthio)-pyrimidine] | 5000 nM | –
38 | CC(C)c1ccnc(CSc2nc(N)c(Br)c(Cl)n2)c1 [Example 166, 4-amino-5-bromo-6-chloro-2-[2-(4-isopropyl)pyridylmethylthio]-pyrimidine] | 20 nM | –
39 | Nc1cc(Cl)nc(S(=O)(=O)Cc2cccc(Br)c2)n1 [Example 69, 4-amino-6-chloro-2-(3-bromophenylmethylsulfonyl)pyrimidine] | 20000 nM | –
40 | NC(=O)c1ccnc(CSc2nc(N)cc(Cl)n2)c1 [Example 163, 4-amino-6-chloro-2-[2-(4-carboxamido)-pyridylmethylthio]-pyrimidine] | 20000 nM | –
41 | Nc1nc(SCc2ccc3ccccc3c2)nc(Cl)c1F [Example 91, 4-amino-5-fluoro-6-chloro-2-(2-naphthylmethylthio)-pyrimidine] | 2500 nM | –
42 | CN(C)c1ccnc(CSc2nc(N)cc(Cl)n2)c1 [Example 146, 4-amino-6-chloro-2-[2-(4-dimethylamino)pyridylmethylthio]-pyrimidine] | 10 nM | –
43 | Nc1cc(Cl)nc(SC/C=C/c2ccccc2)n1 [Example 64, 4-amino-6-chloro-2-(E-styrylmethylthio)-pyrimidine] | 66 nM | –
44 | Cc1cccc(CSc2nc(N)cc(Cl)n2)c1 [Example 36, 4-amino-6-chloro-2-(3-methylphenylmethylthio)-pyrimidine] | 50 nM | –
45 | CCOc1ccnc(CSc2nc(N)cc(Cl)n2)c1 [Example 115, 4-amino-6-chloro-2-[2-(4-ethoxy)pyridylmethylthio]-pyrimidine] | 50 nM | –
46 | Clc1cc(N2CCCCC2)nc(SCc2ccccc2)n1 [Example 84, 4-piperido-6-chloro-2-(benzylthio)-pyrimidine] | 10000 nM | –
47 | Nc1cc(Cl)nc(SCc2ccccc2)n1 [Example 34A, 4-amino-6-chloro-2-(benzylthio)-pyrimidine] | 2000 nM | –
48 | Nc1cc(Cl)nc(SCC(=O)c2ccccc2)n1 [Example 100, 4-amino-6-chloro-2-[2-(1-phenyl-1-ethanon)thio]-pyrimidine] | 2000 nM | –
